Measurements as given in PubChem BioAssay (NCI).
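Interpolation was linear, between the two tested concentrations surrounding the appropriate level; five concentrations were tested over 48 hours in 96-well plates. Here, GI50 denotes the concentration required for 50% inhibition of growth. TGI marks complete inhibition of growth.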

Key:
Test in all cases: NCI-60 cell line screen, 48 h; in the data active = GI50 below about 0.43 µM; inactive = the rest
786-0 renal = tested on: 786-0 renal
A498 renal = tested on: A498 renal
A549 NSCLC = tested on: A549 NSCLC
ACHN renal = tested on: ACHN renal
BT-549 breast = tested on: BT-549 breast
CAKI-1 renal = tested on: CAKI-1 renal
CCRF-CEM leukemia = tested on: CCRF-CEM leukemia
COLO 205 colon = tested on: COLO 205 colon
DU-145 prostate = tested on: DU-145 prostate
HCC-2998 colon = tested on: HCC-2998 colon
HCT-116 colon = tested on: HCT-116 colon
HCT-15 colon = tested on: HCT-15 colon
HL-60(TB) leukemia = tested on: HL-60(TB) leukemia
HOP-62 NSCLC = tested on: HOP-62 NSCLC
HOP-92 NSCLC = tested on: HOP-92 NSCLC
HS 578T breast = tested on: HS 578T breast
HT29 colon = tested on: HT29 colon
IGROV1 ovarian = tested on: IGROV1 ovarian
K-562 leukemia = tested on: K-562 leukemia
KM12 colon = tested on: KM12 colon
LOX IMVI melanoma = tested on: LOX IMVI melanoma
M14 melanoma = tested on: M14 melanoma
MALME-3M melanoma = tested on: MALME-3M melanoma
MCF7 breast = tested on: MCF7 breast
MDA-MB-231 breast = tested on: MDA-MB-231 breast
MDA-MB-435 = tested on: MDA-MB-435
MOLT-4 leukemia = tested on: MOLT-4 leukemia
NCI-H226 lung = tested on: NCI-H226 lung
NCI-H23 lung = tested on: NCI-H23 lung
NCI-H460 lung = tested on: NCI-H460 lung
NCI-H522 lung = tested on: NCI-H522 lung
NCI/ADR-RES ovarian = tested on: NCI/ADR-RES ovarian
OVCAR-3 ovarian = tested on: OVCAR-3 ovarian
OVCAR-4 ovarian = tested on: OVCAR-4 ovarian
OVCAR-5 ovarian = tested on: OVCAR-5 ovarian
OVCAR-8 ovarian = tested on: OVCAR-8 ovarian
PC-3 prostate = tested on: PC-3 prostate
RPMI-8226 leukemia = tested on: RPMI-8226 leukemia
RXF 393 renal = tested on: RXF 393 renal
SF-268 CNS = tested on: SF-268 CNS
SF-295 CNS = tested on: SF-295 CNS
SF-539 CNS = tested on: SF-539 CNS
SK-MEL-2 melanoma = tested on: SK-MEL-2 melanoma
SK-MEL-28 melanoma = tested on: SK-MEL-28 melanoma
SK-MEL-5 melanoma = tested on: SK-MEL-5 melanoma
SK-OV-3 ovarian = tested on: SK-OV-3 ovarian
SN12C renal = tested on: SN12C renal
SNB-19 CNS = tested on: SNB-19 CNS
SNB-75 CNS = tested on: SNB-75 CNS
SR leukemia = tested on: SR leukemia
SW-620 colon = tested on: SW-620 colon
T-47D breast = tested on: T-47D breast
TK-10 renal = tested on: TK-10 renal
U251 CNS = tested on: U251 CNS
UACC-257 melanoma = tested on: UACC-257 melanoma
UACC-62 melanoma = tested on: UACC-62 melanoma
UO-31 renal = tested on: UO-31 renal

CCCCNNC(=O)c1ccc(Br)cc1
24 µM: TGI (HCC-2998 colon)
> 36.1 µM: TGI (ACHN renal)
inactive: GI50 (786-0 renal) 11.8 µM | GI50 (A549 NSCLC) 5.34 µM | GI50 (ACHN renal) 2.67 µM | GI50 (BT-549 breast) 17 µM | GI50 (CAKI-1 renal) 2.88 µM | GI50 (CCRF-CEM leukemia) 2.46 µM | GI50 (COLO 205 colon) 2.21 µM | GI50 (DU-145 prostate) 2.6 µM | GI50 (HCC-2998 colon) 4.35 µM | GI50 (HCT-116 colon) 1.47 µM | GI50 (HCT-15 colon) 6.87 µM | GI50 (HL-60(TB) leukemia) 2.24 µM | GI50 (HOP-62 NSCLC) 2.98 µM | GI50 (HOP-92 NSCLC) 1.46 µM | GI50 (HS 578T breast) 4.27 µM | GI50 (HT29 colon) 1.92 µM | GI50 (IGROV1 ovarian) 8.35 µM | GI50 (K-562 leukemia) 2.02 µM | GI50 (KM12 colon) 7.26 µM | GI50 (LOX IMVI melanoma) 3.29 µM | GI50 (M14 melanoma) 2.46 µM | GI50 (MALME-3M melanoma) 1.7 µM | GI50 (MCF7 breast) 2.06 µM | GI50 (MDA-MB-231 breast) 9.03 µM | GI50 (MDA-MB-435) 2.21 µM | GI50 (MOLT-4 leukemia) 2.51 µM | GI50 (NCI-H226 lung) 9.86 µM | GI50 (NCI-H23 lung) 6.77 µM | GI50 (NCI-H460 lung) 2.97 µM | GI50 (NCI-H522 lung) 1.27 µM | GI50 (NCI/ADR-RES ovarian) 1.03 µM | GI50 (OVCAR-3 ovarian) 5.26 µM | GI50 (OVCAR-4 ovarian) 4.79 µM | GI50 (OVCAR-5 ovarian) 1.01 µM | GI50 (OVCAR-8 ovarian) 1.5 µM | GI50 (PC-3 prostate) 4.12 µM | GI50 (RPMI-8226 leukemia) 0.956 µM | GI50 (RXF 393 renal) 4.53 µM | GI50 (SF-268 CNS) 8.41 µM | GI50 (SF-295 CNS) 2.54 µM | GI50 (SF-539 CNS) 1.76 µM | GI50 (SK-MEL-2 melanoma) 1.83 µM | GI50 (SK-MEL-28 melanoma) 1.55 µM | GI50 (SK-MEL-5 melanoma) 1.94 µM | GI50 (SK-OV-3 ovarian) 8.54 µM | GI50 (SN12C renal) 15.4 µM | GI50 (SNB-19 CNS) 11.2 µM | GI50 (SNB-75 CNS) 1.83 µM | GI50 (SR leukemia) 2.76 µM | GI50 (SW-620 colon) 2.17 µM | GI50 (T-47D breast) 1.11 µM | GI50 (TK-10 renal) 1.31 µM | GI50 (U251 CNS) 3.78 µM | GI50 (UACC-257 melanoma) 0.639 µM | GI50 (UACC-62 melanoma) 1.3 µM | GI50 (UO-31 renal) 2.36 µM
> 27 µM: TGI (CAKI-1 renal)
13.4 µM: TGI (HCT-116 colon)
7.49 µM: TGI (T-47D breast)
11.4 µM: TGI (HOP-92 NSCLC)
12.2 µM: TGI (LOX IMVI melanoma) | TGI (TK-10 renal)
> 39.9 µM: TGI (SK-MEL-2 melanoma)
30.4 µM: TGI (RXF 393 renal)
7.77 µM: TGI (SK-MEL-5 melanoma)
28.5 µM: TGI (U251 CNS)
> 37.8 µM: TGI (NCI/ADR-RES ovarian)
> 34.2 µM: TGI (HOP-62 NSCLC)
7.51 µM: TGI (UACC-62 melanoma)
> 22 µM: TGI (NCI-H522 lung)
> 35.1 µM: TGI (UO-31 renal)
14.7 µM: TGI (SF-295 CNS)
active: GI50 (A498 renal) 0.364 µM
9.92 µM: TGI (COLO 205 colon)
> 35.3 µM: TGI (SK-MEL-28 melanoma)
7.34 µM: TGI (UACC-257 melanoma)
> 50 µM: TGI (786-0 renal) | TGI (A549 NSCLC) | TGI (BT-549 breast) | TGI (CCRF-CEM leukemia) | TGI (DU-145 prostate) | TGI (HCT-15 colon) | TGI (HL-60(TB) leukemia) | TGI (HS 578T breast) | TGI (IGROV1 ovarian) | TGI (K-562 leukemia) | TGI (KM12 colon) | TGI (M14 melanoma) | TGI (MALME-3M melanoma) | TGI (MCF7 breast) | TGI (MDA-MB-231 breast) | TGI (MDA-MB-435) | TGI (MOLT-4 leukemia) | TGI (NCI-H226 lung) | TGI (NCI-H23 lung) | TGI (NCI-H460 lung) | TGI (OVCAR-3 ovarian) | TGI (OVCAR-4 ovarian) | TGI (OVCAR-8 ovarian) | TGI (PC-3 prostate) | TGI (RPMI-8226 leukemia) | TGI (SF-268 CNS) | TGI (SF-539 CNS) | TGI (SK-OV-3 ovarian) | TGI (SN12C renal) | TGI (SNB-19 CNS) | TGI (SNB-75 CNS) | TGI (SR leukemia) | TGI (SW-620 colon)
> 15.3 µM: TGI (OVCAR-5 ovarian)
> 39 µM: TGI (HT29 colon)
3.41 µM: TGI (A498 renal)
